In series [1] the test system is Mus musculus. Nature of the series: Toxicity in lactating mouse assessed as widespread mammary gland necrosis at 200 mg/kg. It is filed as organism-based. Also noted: dose 200 mg/kg. The note with it: in vivo.
In series [2] the test system is Mus musculus. Nature of the series: Toxicity in lactating mouse assessed as widespread mammary gland necrosis at 50 to 100 mg/kg. Format: organism-based. Also noted: dose 50-100 mg/kg. The note with it: in vivo.

As for `CCCCC/C=C\C/C=C\CCCCCCCC(=O)C[C@H](O)COC(C)=O`, in the series on Mus musculus [1], the Activity entry is listed as “Not Active”. In the case of `CCCCC/C=C\C/C=C\CCCCCCCC(=O)C[C@@H](O)COC(C)=O`, the result with Mus musculus [2] was Active.

(Values after ChEMBL document CHEMBL1159284, “A Short Enantioselective Synthesis of a Biologically Active Compound from Persea americana” (J Nat Prod, 1995).)
